# According to patent US8574563B2 (Bristol-Myers Squibb Company, priority 2006, dated 2013):
# Read-outs that look alike come from different tables or passages of the source.
# Test system: HCV 1b-377-neo replicon cells
# Test: HCV replicon assay, HCV 1b-377-neo replicon cells (1b FRET)
# Assay type: cell-based, Hepatitis C virus genotype 1b
# Conditions: HCV 1b-377-neo replicon cells, HCV 1b genotype, read-out: EC50 range against HCV 1b (Table 2, Range)
# In short: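 Compounds were tested in genotype 1b subgenomic replicon cells carrying a neomycin marker, alongside a matched replicon line with an NS5A Y2065H substitution that confers resistance to a reference NS5A inhibitor.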
SMILES,EC50 (Hepatitis C virus),EC50
"COC(=O)N[C@@H](C(=O)N1CCC[C@H]1c1ncc(-c2ccc(-c3ccc(-c4cnc([C@@H]5CCCN5C(=O)Cc5nnn[nH]5)[nH]4)cc3)cc2)[nH]1)c1ccccc1 [Example 65, methyl ((1R)-2-oxo-1-phenyl-2-((2S)-2-(5-(4′-(2-((2S)-1-(1H-tetrazol-5-ylacetyl)-2-pyrrolidinyl)-1H-imidazol-5-yl)-4-biphenylyl)-1H-imidazol-2-yl)-1-pyrrolidinyl)ethyl)carbamate]",1 to 99 nM,–
"COC(=O)N[C@@H](C(=O)N[C@@H](C)c1ncc(-c2ccc(-c3ccc(-c4cnc([C@@H]5CCCN5C(=O)[C@H](NC(=O)OC)c5ccccc5)[nH]4)nn3)cc2)[nH]1)c1ccccc1 [Example 152j-14, methyl ((1R)-2-((2S)-2-(5-(6-(4-(2-((1S)-1-(((2R)-2-((methoxycarbonyl)amino)-2-phenylacetyl)amino)ethyl)-1H-imidazol-5-yl)phenyl)-3-pyridazinyl)-1H-imidazol-2-yl)-1-pyrrolidinyl)-2-oxo-1-phenylethyl)carbamate]",1 to 99 nM,–
"COC(=O)N[C@@H](C(=O)N1CCC[C@H]1c1ncc(-c2ccc(-c3ccc(-c4cnc([C@@H]5CCCN5C(=O)[C@H](OC(C)=O)c5ccccc5)[nH]4)cc3)cc2)[nH]1)c1ccccc1 [Example 84-82, (1R)-2-((2S)-2-(5-(4′-(2-((2S)-1-((2R)-2-((methoxycarbonyl)amino)-2-phenylacetyl)-2-pyrrolidinyl)-1H-imidazol-5-yl)-4-biphenylyl)-1H-imidazol-2-yl)-1-pyrrolidinyl)-2-oxo-1-phenylethyl acetate]",0.001 to 0.999 nM,–
"COC(=O)N[C@@H](C)C(=O)N1CCC[C@H]1c1ncc(-c2ccc(-c3ccc(-c4cnc([C@@H]5CCCN5C(=O)C(c5ccccc5)N5C6CCC5CC6)[nH]4)cc3)cc2)[nH]1 (stereo partly drawn) [Example M97, methyl ((1S)-2-((2S)-2-(5-(4′-(2-((2S)-1-(7-azabicyclo[2.2.1]hept-7-yl(phenyl)acetyl)-2-pyrrolidinyl)-1H-imidazol-5-yl)-4-biphenylyl)-1H-imidazol-2-yl)-1-pyrrolidinyl)-1-methyl-2-oxoethyl)carbamate]",1 to 99 nM,–
"COC(=O)N[C@@H](C(=O)N1CCC[C@H]1c1ncc(-c2ccc(-c3ccc(-c4cnc([C@@H]5CCCN5C(=O)Cc5cnc[nH]5)[nH]4)cc3)cc2)[nH]1)c1ccccc1 [Example 61, methyl ((1R)-2-((2S)-2-(5-(4′-(2-((2S)-1-(1H-imidazol-5-ylacetyl)-2-pyrrolidinyl)-1H-imidazol-5-yl)-4-biphenylyl)-1H-imidazol-2-yl)-1-pyrrolidinyl)-2-oxo-1-phenylethyl)carbamate]",0.001 to 0.999 nM,–
"COC(=O)N[C@H](C(=O)N1CCC[C@H]1c1nc(-c2ccc(-c3ccc(-c4cnc([C@@H]5CCCN5C(=O)[C@@H](NC(=O)OC)C5CCOCC5)[nH]4)cc3)cc2)c[nH]1)C(C)C [Example F58, methyl ((1S)-1-(((2S)-2-(4-(4′-(2-((2S)-1-((2S)-2-((methoxycarbonyl)amino)-2-(tetrahydro-2H-pyran-4-yl)acetyl)-2-pyrrolidinyl)-1H-imidazol-5-yl)-4-biphenylyl)-1H-imidazol-2-yl)-1-pyrrolidinyl)carbonyl)-2-methylpropyl)carbamate]",0.001 to 0.999 nM,–
"CC(C)[C@H](O)C(=O)N1[C@@H](C)CC[C@H]1c1nc(-c2ccc(-c3ccc(-c4c[nH]c([C@@H]5CC[C@H](C)N5C(=O)[C@@H](O)C(C)C)n4)cc3)cc2)c[nH]1 [Example M161, (2S,2′S)-1,1′-(4,4′-biphenyldiylbis(1H-imidazole-4,2-diyl((2S,5S)-5-methyl-2,1-pyrrolidinediyl)))bis(3-methyl-1-oxo-2-butanol)]",1 to 99 nM,–
"C[C@H]1CC[C@@H](c2nc(-c3ccc(-c4ccc(-c5c[nH]c([C@@H]6CC[C@H](C)N6C(=O)Cc6ccccc6)n5)cc4)cc3)c[nH]2)N1C(=O)Cc1ccccc1 [Example M159, 4,4′-(4,4′-biphenyldiyl)bis(2-((2S,5S)-5-methyl-1-(phenylacetyl)-2-pyrrolidinyl)-1H-imidazole)]",0.001 to 0.999 nM,–
"COC(=O)N[C@H](C(=O)N1CCC[C@H]1c1ncc(-c2ccc(-c3ccc(-c4cnc([C@@H]5CCCN5C(=O)[C@@H](NC(=O)OC)C(C)C)[nH]4)c(F)c3)cc2F)[nH]1)C(C)C [Example D58, methyl ((1S)-1-(((2S)-2-(5-(3,3′-difluoro-4′-(2-((2S)-1-((2S)-2-((methoxycarbonyl)amino)-3-methylbutanoyl)-2-pyrrolidinyl)-1H-imidazol-5-yl)-4-biphenylyl)-1H-imidazol-2-yl)-1-pyrrolidinyl)carbonyl)-2-methylpropyl) carbamate]",0.001 to 0.999 nM,–
"COC(=O)N[C@@H](C)C(=O)N1CCC[C@H]1c1ncc(-c2ccc(-c3cc(F)c(-c4cnc([C@@H]5CCCN5C(=O)[C@H](C)NC(=O)OC)[nH]4)cc3F)cc2)[nH]1 [Example D52, methyl ((1S)-2-((2S)-2-(5-(2′5′-difluoro-4′-(2-((2S)-1-(N-(methoxycarbonyl)-L-alanyl)-2-pyrrolidinyl)-1H-imidazol-5-yl)-4-biphenylyl)-1H-imidazol-2-yl)-1-pyrrolidinyl)-1-methyl-2-oxoethyl)carbamate]",0.001 to 0.999 nM,–
"O=C(C(c1ccccc1)N1CCC(c2ccccc2)CC1)N1CCC[C@H]1c1ncc(-c2ccc(-c3ccc(-c4c[nH]c([C@@H]5CCCN5C(=O)[C@H]5CCCO5)n4)cc3)cc2)[nH]1 (stereo partly drawn) [Example 103-1, 1-(2-oxo-1-phenyl-2-((2S)-2-(5-(4′-(2-((2S)-1-((2R)-tetrahydro-2-furanylcarbonyl)-2-pyrrolidinyl)-1H-imidazol-4-yl)-4-biphenylyl)-1H-imidazol-2-yl)-1-pyrrolidinyl)ethyl)-4-phenylpiperidine]",0.001 to 0.999 nM,–
"CN(C)[C@@H](C(=O)N1CCC[C@H]1c1nc(-c2ccc(-c3ccc(-c4cn(C)c([C@@H]5CCCN5C(=O)[C@@H](c5ccccc5)N(C)C)n4)cc3)cc2)cn1C)c1ccccc1 (single isomer, unassigned) [151 isomer 2]",–,100 to 999 nM
COC(=O)N[C@@H](CCN1CCOCC1)C(=O)N1CCC[C@H]1c1ncc(-c2ccc(-c3ccc(-c4cnc([C@@H]5CCCN5C(=O)[C@@H](NC(=O)OC)C(C)C)[nH]4)cc3)cc2)[nH]1 [Example M68],–,100 to 999 nM
"CN(C)[C@@H](C(=O)N1CCC[C@H]1c1ncc(-c2ccc(-c3ccc(-c4cnc([C@@H]5CCCN5C(=O)Cc5c[nH]c6ccccc56)[nH]4)cc3)cc2)[nH]1)c1ccccc1 [Example 94-56, (1R)-2-((2S)-2-(5-(4′-(2-((2S)-1-(1H-indol-3-ylacetyl)-2-pyrrolidinyl)-1H-imidazol-5-yl)-4-biphenylyl)-1H-imidazol-2-yl)-1-pyrrolidinyl)-N,N-dimethyl-2-oxo-1-phenylethanamine]",0.001 to 0.999 nM,–
"O=C(Cc1cccnc1)N[C@@H](C(=O)N1CCC[C@H]1c1ncc(-c2ccc(-c3ccc(-c4c[nH]c([C@@H]5CCCN5C(=O)[C@H]5CCCO5)n4)cc3)cc2)[nH]1)c1ccccc1 [Example 120-7, N-((1R)-2-oxo-1-phenyl-2-((2S)-2-(5-(4′-(2-((2S)-1-((2R)-tetrahydro-2-furanylcarbonyl)-2-pyrrolidinyl)-1H-imidazol-4-yl)-4-biphenylyl)-1H-imidazol-2-yl)-1-pyrrolidinyl)ethyl)-2-(3-pyridinyl)acetamide]",0.001 to 0.999 nM,–
COC(=O)N[C@@H](C)C(=O)N1C[C@H](O)C[C@H]1c1ncc(-c2ccc(-c3ccc(-c4cnc([C@@H]5C[C@@H](O)CN5C(=O)[C@H](C)NC(=O)OC)[nH]4)cc3)cc2)[nH]1 [JG-4],1 to 99 nM,–
"COC(=O)N[C@@H](C(=O)N1CCC[C@H]1c1ncc(-c2ccc(-c3ccc(-c4cnc([C@@H]5CCCN5C(=O)C5CCN(C)CC5)[nH]4)cn3)cc2)[nH]1)c1ccccc1 [Example 142, methyl ((1R)-2-((2S)-2-(5-(4-(5-(2-((2S)-1-((1-methyl-4-piperidinyl)carbonyl)-2-pyrrolidinyl)-1H-imidazol-5-yl)-2-pyridinyl)phenyl)-1H-imidazol-2-yl)-1-pyrrolidinyl)-2-oxo-1-phenylethyl)carbamate]",1 to 99 nM,–
"O=C([C@H]1CCCO1)N1CCC[C@H]1c1ncc(-c2ccc(-c3ccc(-c4cnc([C@@H]5CCCN5C(=O)[C@H]5CCCO5)[nH]4)cc3)cc2)[nH]1 [Example 13, 5,5′-(4,4′-biphenyldiyl)bis(2-((2S)-1-((2R)-tetrahydro-2-furanylcarbonyl)-2-pyrrolidinyl)-1H-imidazole)]",1 to 99 nM,–
"COC(=O)N[C@@H](C(=O)N1CCC[C@H]1c1ncc(-c2ccc(-c3ccc(-c4cnc([C@@H]5CCCN5C(=O)[C@H](NC(=O)OC)c5ccccc5)[nH]4)cn3)cc2)[nH]1)c1ccccc1 [Example 134, methyl ((1R)-2-((2S)-2-(5-(6-(4-(2-((2S)-1-((2R)-2-((methoxycarbonyl)amino)-2-phenylacetyl)-2-pyrrolidinyl)-1H-imidazol-5-yl)phenyl)-3-pyridinyl)-1H-imidazol-2-yl)-1-pyrrolidinyl)-2-oxo-1-phenylethyl)carbamate]",0.001 to 0.999 nM,–
"COC(=O)N[C@@H](C)C(=O)N1CCC[C@H]1c1ncc(-c2ccc(-c3ccc(-c4cnc([C@@H]5CCCN5C(=O)[C@@H](c5ccccc5)N5CCCC5)[nH]4)cc3)cc2)[nH]1 [Example 101, methyl ((1S)-1-methyl-2-oxo-2-((2S)-2-(5-(4′-(2-((2S)-1-((2R)-2-phenyl-2-(1-pyrrolidinyl)acetyl)-2-pyrrolidinyl)-1H-imidazol-5-yl)-4-biphenylyl)-1H-imidazol-2-yl)-1-pyrrolidinyl)ethyl)carbamate]",0.001 to 0.999 nM,–
"COC(=O)N[C@@H](C(=O)N1CCC[C@H]1c1ncc(-c2ccc(-c3ccc(-c4cnc([C@@H]5CCCN5C(=O)[C@@H]5CCC[C@H]5NC(=O)OC)[nH]4)cc3)cc2)[nH]1)c1ccccc1 [cj-110, methyl ((1R)-2-((2S)-2-(5-(4′-(2-((2S)-1-(((1R,2R)-2-((methoxycarbonyl)amino)cyclopentyl)carbonyl)-2-pyrrolidinyl)-1H-imidazol-5-yl)-4-biphenylyl)-1H-imidazol-2-yl)-1-pyrrolidinyl)-2-oxo-1-phenylethyl)carbamate]",0.001 to 0.999 nM,–
